Experimental data taken from PubChem BioAssay AID1919674.

Target: Solute carrier family 12 member 2 (Homo sapiens) (UniProt P55011)
Assay: SLC12A2 cotransporter inhibitors, dose response, HEK-293 overexpressing cells, thallium flux (AID 1919674)
Conditions: HEK-293 SLC12A2 OE, thallium flux fluorescence (FLIPR)

Solute carrier family 12 member 2 (Homo sapiens), sequence (P55011 whole entry, looked up): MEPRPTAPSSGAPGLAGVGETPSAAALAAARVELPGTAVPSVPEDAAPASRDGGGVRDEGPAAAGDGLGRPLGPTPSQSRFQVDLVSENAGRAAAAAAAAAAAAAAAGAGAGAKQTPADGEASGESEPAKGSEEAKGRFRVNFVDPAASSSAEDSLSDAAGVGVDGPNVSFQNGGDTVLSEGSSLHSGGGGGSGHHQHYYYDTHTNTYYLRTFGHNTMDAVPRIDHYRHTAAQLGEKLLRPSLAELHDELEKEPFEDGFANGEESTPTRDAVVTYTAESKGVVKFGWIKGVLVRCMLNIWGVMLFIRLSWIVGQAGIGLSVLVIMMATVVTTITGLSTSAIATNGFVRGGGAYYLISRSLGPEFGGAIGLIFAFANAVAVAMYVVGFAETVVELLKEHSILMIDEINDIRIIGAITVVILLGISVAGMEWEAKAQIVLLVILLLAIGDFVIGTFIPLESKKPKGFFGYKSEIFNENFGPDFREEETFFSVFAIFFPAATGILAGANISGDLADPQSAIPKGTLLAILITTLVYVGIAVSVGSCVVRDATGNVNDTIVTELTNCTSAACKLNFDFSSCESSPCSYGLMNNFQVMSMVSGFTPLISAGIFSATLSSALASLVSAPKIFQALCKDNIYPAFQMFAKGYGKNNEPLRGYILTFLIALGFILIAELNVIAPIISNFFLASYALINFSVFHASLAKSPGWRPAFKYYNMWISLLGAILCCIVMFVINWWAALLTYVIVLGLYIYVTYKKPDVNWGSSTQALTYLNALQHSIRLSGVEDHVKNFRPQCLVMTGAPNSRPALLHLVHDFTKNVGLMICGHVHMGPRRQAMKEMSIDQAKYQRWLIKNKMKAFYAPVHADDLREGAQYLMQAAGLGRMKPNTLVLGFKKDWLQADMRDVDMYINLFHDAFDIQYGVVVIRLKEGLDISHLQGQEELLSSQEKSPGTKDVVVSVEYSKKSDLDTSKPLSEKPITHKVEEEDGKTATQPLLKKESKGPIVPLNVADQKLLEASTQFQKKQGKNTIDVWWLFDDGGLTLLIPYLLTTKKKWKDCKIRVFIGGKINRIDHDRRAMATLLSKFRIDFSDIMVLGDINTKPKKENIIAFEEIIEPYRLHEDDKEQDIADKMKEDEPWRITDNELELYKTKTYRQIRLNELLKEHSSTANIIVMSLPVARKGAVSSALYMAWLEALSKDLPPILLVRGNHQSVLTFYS

Work on `[Tl+]` yielded an IC50 of 600 µM.
